# In PubChem BioAssay (NCI):
#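 Test compounds were applied to cells in 96-well plates for 48 hours at 5 doses. Abbreviation: GI50, concentration required for 50% inhibition of growth. TGI marks complete inhibition of growth.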
# Columns and labels:
# Test in all cases: NCI-60 cell line screen, 48 h
# U251 CNS = tested on: U251 CNS
# SNB-75 CNS = tested on: SNB-75 CNS
# UO-31 renal = tested on: UO-31 renal
# HOP-62 NSCLC = tested on: HOP-62 NSCLC
# COLO 205 colon = tested on: COLO 205 colon
# HOP-92 NSCLC = tested on: HOP-92 NSCLC
# BT-549 breast = tested on: BT-549 breast
# MCF7 breast = tested on: MCF7 breast
# OVCAR-4 ovarian = tested on: OVCAR-4 ovarian
# MALME-3M melanoma = tested on: MALME-3M melanoma
# SK-MEL-28 melanoma = tested on: SK-MEL-28 melanoma
# OVCAR-5 ovarian = tested on: OVCAR-5 ovarian
# M14 melanoma = tested on: M14 melanoma
# HS 578T breast = tested on: HS 578T breast
# SN12C renal = tested on: SN12C renal
# NCI-H23 lung = tested on: NCI-H23 lung
# CCRF-CEM leukemia = tested on: CCRF-CEM leukemia
# OVCAR-8 ovarian = tested on: OVCAR-8 ovarian
# A498 renal = tested on: A498 renal
# MOLT-4 leukemia = tested on: MOLT-4 leukemia
# NCI/ADR-RES ovarian = tested on: NCI/ADR-RES ovarian
# SF-268 CNS = tested on: SF-268 CNS
# A549 NSCLC = tested on: A549 NSCLC
# SW-620 colon = tested on: SW-620 colon
# CAKI-1 renal = tested on: CAKI-1 renal
# T-47D breast = tested on: T-47D breast
# SF-295 CNS = tested on: SF-295 CNS
# TK-10 renal = tested on: TK-10 renal
# UACC-62 melanoma = tested on: UACC-62 melanoma
# MDA-MB-435 = tested on: MDA-MB-435
# RXF 393 renal = tested on: RXF 393 renal
# EKVX NSCLC = tested on: EKVX NSCLC
# HCC-2998 colon = tested on: HCC-2998 colon
# HT29 colon = tested on: HT29 colon
# IGROV1 ovarian = tested on: IGROV1 ovarian
# ACHN renal = tested on: ACHN renal
# SK-MEL-2 melanoma = tested on: SK-MEL-2 melanoma
# NCI-H460 lung = tested on: NCI-H460 lung
# UACC-257 melanoma = tested on: UACC-257 melanoma
# PC-3 prostate = tested on: PC-3 prostate
# SR leukemia = tested on: SR leukemia
# HCT-116 colon = tested on: HCT-116 colon
# SNB-19 CNS = tested on: SNB-19 CNS
# KM12 colon = tested on: KM12 colon
# HCT-15 colon = tested on: HCT-15 colon
# MDA-MB-231 breast = tested on: MDA-MB-231 breast
# LOX IMVI melanoma = tested on: LOX IMVI melanoma
# OVCAR-3 ovarian = tested on: OVCAR-3 ovarian
# DU-145 prostate = tested on: DU-145 prostate
# 786-0 renal = tested on: 786-0 renal
# HL-60(TB) leukemia = tested on: HL-60(TB) leukemia
# NCI-H522 lung = tested on: NCI-H522 lung
# K-562 leukemia = tested on: K-562 leukemia
# SK-OV-3 ovarian = tested on: SK-OV-3 ovarian
# SF-539 CNS = tested on: SF-539 CNS
# RPMI-8226 leukemia = tested on: RPMI-8226 leukemia
# NCI-H226 lung = tested on: NCI-H226 lung
# SK-MEL-5 melanoma = tested on: SK-MEL-5 melanoma
smiles,measurement,setting,value
CCCC[P+](c1ccccc1)(c1ccccc1)c1ccccc1,GI50,U251 CNS,2.34 µM
same,TGI,U251 CNS,> 100 µM
same,GI50,SNB-75 CNS,4.95 µM
same,TGI,SNB-75 CNS,> 100 µM
same,GI50,UO-31 renal,24.2 µM
same,TGI,UO-31 renal,> 100 µM
same,GI50,HOP-62 NSCLC,2.55 µM
same,TGI,HOP-62 NSCLC,> 100 µM
same,GI50,COLO 205 colon,1.24 µM
same,TGI,COLO 205 colon,7.15 µM
same,GI50,HOP-92 NSCLC,0.675 µM
same,TGI,HOP-92 NSCLC,6.58 µM
same,GI50,BT-549 breast,3.32 µM
same,TGI,BT-549 breast,74.7 µM
same,GI50,MCF7 breast,1.33 µM
same,TGI,MCF7 breast,> 100 µM
same,GI50,OVCAR-4 ovarian,2.43 µM
same,TGI,OVCAR-4 ovarian,> 100 µM
same,GI50,MALME-3M melanoma,4.29 µM
same,TGI,MALME-3M melanoma,> 100 µM
same,GI50,SK-MEL-28 melanoma,28.1 µM
same,TGI,SK-MEL-28 melanoma,> 100 µM
same,GI50,OVCAR-5 ovarian,12.5 µM
same,TGI,OVCAR-5 ovarian,> 100 µM
same,GI50,M14 melanoma,6.79 µM
same,TGI,M14 melanoma,> 100 µM
same,GI50,HS 578T breast,3.38 µM
same,TGI,HS 578T breast,20.7 µM
same,GI50,SN12C renal,4.35 µM
same,TGI,SN12C renal,> 100 µM
same,GI50,NCI-H23 lung,2.57 µM
same,TGI,NCI-H23 lung,32.6 µM
same,GI50,CCRF-CEM leukemia,1.72 µM
same,TGI,CCRF-CEM leukemia,> 100 µM
same,GI50,OVCAR-8 ovarian,2.68 µM
same,TGI,OVCAR-8 ovarian,> 100 µM
same,GI50,A498 renal,3.46 µM
same,TGI,A498 renal,29.5 µM
same,GI50,MOLT-4 leukemia,5.72 µM
same,TGI,MOLT-4 leukemia,> 100 µM
same,GI50,NCI/ADR-RES ovarian,> 100 µM
same,TGI,NCI/ADR-RES ovarian,> 100 µM
same,GI50,SF-268 CNS,5.66 µM
same,TGI,SF-268 CNS,> 100 µM
same,GI50,A549 NSCLC,4.4 µM
same,TGI,A549 NSCLC,> 100 µM
same,GI50,SW-620 colon,3.46 µM
same,TGI,SW-620 colon,> 100 µM
same,GI50,CAKI-1 renal,> 100 µM
same,TGI,CAKI-1 renal,> 100 µM
same,GI50,T-47D breast,0.628 µM
same,TGI,T-47D breast,> 100 µM
same,GI50,SF-295 CNS,5.29 µM
same,TGI,SF-295 CNS,37.3 µM
same,GI50,TK-10 renal,8.29 µM
same,TGI,TK-10 renal,> 100 µM
same,GI50,UACC-62 melanoma,1.9 µM
same,TGI,UACC-62 melanoma,> 100 µM
same,GI50,MDA-MB-435,1.63 µM
same,TGI,MDA-MB-435,82.6 µM
same,GI50,RXF 393 renal,18.5 µM
same,TGI,RXF 393 renal,> 100 µM
same,GI50,EKVX NSCLC,1 µM
same,TGI,EKVX NSCLC,> 100 µM
same,GI50,HCC-2998 colon,1.42 µM
same,TGI,HCC-2998 colon,> 100 µM
same,GI50,HT29 colon,3.03 µM
same,TGI,HT29 colon,> 100 µM
same,GI50,IGROV1 ovarian,11.4 µM
same,TGI,IGROV1 ovarian,> 100 µM
same,GI50,ACHN renal,29 µM
same,TGI,ACHN renal,> 100 µM
same,GI50,SK-MEL-2 melanoma,3.42 µM
same,TGI,SK-MEL-2 melanoma,19.6 µM
same,GI50,NCI-H460 lung,1.96 µM
same,TGI,NCI-H460 lung,24.7 µM
same,GI50,UACC-257 melanoma,0.61 µM
same,TGI,UACC-257 melanoma,7.6 µM
same,GI50,PC-3 prostate,1.16 µM
same,TGI,PC-3 prostate,68.3 µM
same,GI50,SR leukemia,1.96 µM
same,TGI,SR leukemia,> 100 µM
same,GI50,HCT-116 colon,2.87 µM
same,TGI,HCT-116 colon,> 100 µM
same,GI50,SNB-19 CNS,3.6 µM
same,TGI,SNB-19 CNS,> 100 µM
same,GI50,KM12 colon,0.944 µM
same,TGI,KM12 colon,66.3 µM
same,GI50,HCT-15 colon,> 100 µM
same,TGI,HCT-15 colon,> 100 µM
same,GI50,MDA-MB-231 breast,9.13 µM
same,TGI,MDA-MB-231 breast,> 100 µM
same,GI50,LOX IMVI melanoma,3.01 µM
same,TGI,LOX IMVI melanoma,> 100 µM
same,GI50,OVCAR-3 ovarian,1.13 µM
same,TGI,OVCAR-3 ovarian,23.3 µM
same,GI50,DU-145 prostate,4.41 µM
same,TGI,DU-145 prostate,> 100 µM
same,GI50,786-0 renal,19.5 µM
same,TGI,786-0 renal,> 100 µM
same,GI50,HL-60(TB) leukemia,0.955 µM
same,TGI,HL-60(TB) leukemia,6.91 µM
same,GI50,NCI-H522 lung,1.22 µM
same,TGI,NCI-H522 lung,6.85 µM
same,GI50,K-562 leukemia,0.577 µM
same,TGI,K-562 leukemia,> 100 µM
same,GI50,SK-OV-3 ovarian,13.4 µM
same,TGI,SK-OV-3 ovarian,> 100 µM
same,GI50,SF-539 CNS,7.09 µM
same,TGI,SF-539 CNS,> 100 µM
same,GI50,RPMI-8226 leukemia,0.193 µM
same,TGI,RPMI-8226 leukemia,0.869 µM
same,GI50,NCI-H226 lung,5.34 µM
same,TGI,NCI-H226 lung,> 100 µM
same,GI50,SK-MEL-5 melanoma,0.534 µM
same,TGI,SK-MEL-5 melanoma,6.63 µM
